From publication PMC10619479, “Multicomponent synthesis of pyrido[2,3-b]pyrazine derivatives: electrochemical DNA sensing, nonlinear optical properties and biological activity” (RSC Advances, 2023)

Key:
Jack Bean Urease [1] = target: T1, Jack Bean Urease (Canavalia ensiformis, UniProt P07374); test: biochemical; parameters: Jack bean urease inhibition, ammonia release by indophenol method, absorbance at 625 nm
Experimental: The enzyme responsible for catalyzing urea, known as urease, helps for the conversion of urea into carbon dioxide (CO2) through hydrolysis. To monitor the production of ammonia (NH3) and inhibit urease activity, we employed the indophenol method.[42] In the reaction mixture, consisting of Jack Bean Urease (200 μL), a buffer with a pH of 8.25 (400 μL, composed of 0.5 mM EDTA, 0.02 M K2HPO4, 0.02 M LiCl, and 120 mM urea), and test compounds (100 μL), incubation was carried out at 25 °C for approximately 30 minutes. […] In the realm of scientific investigation, thiourea functions as a benchmark inhibitor. The determination of the IC50 values entails subjecting both standard and synthesized compounds to varying concentrations under identical experimental conditions.[43,44] […] Thiourea was used as a reference point to assess the effects of substituents about the pyrido[2,3-b]pyrazine based scaffold on their urease inhibitory potential.

Jack Bean Urease [2] = target: T1, Jack Bean Urease; test: indophenol urease inhibition assay (ammonia release, […] nm); type: biochemical
From the text: The determination of the IC50 values entails subjecting both standard and synthesized compounds

T1 sequence (P07374 whole entry): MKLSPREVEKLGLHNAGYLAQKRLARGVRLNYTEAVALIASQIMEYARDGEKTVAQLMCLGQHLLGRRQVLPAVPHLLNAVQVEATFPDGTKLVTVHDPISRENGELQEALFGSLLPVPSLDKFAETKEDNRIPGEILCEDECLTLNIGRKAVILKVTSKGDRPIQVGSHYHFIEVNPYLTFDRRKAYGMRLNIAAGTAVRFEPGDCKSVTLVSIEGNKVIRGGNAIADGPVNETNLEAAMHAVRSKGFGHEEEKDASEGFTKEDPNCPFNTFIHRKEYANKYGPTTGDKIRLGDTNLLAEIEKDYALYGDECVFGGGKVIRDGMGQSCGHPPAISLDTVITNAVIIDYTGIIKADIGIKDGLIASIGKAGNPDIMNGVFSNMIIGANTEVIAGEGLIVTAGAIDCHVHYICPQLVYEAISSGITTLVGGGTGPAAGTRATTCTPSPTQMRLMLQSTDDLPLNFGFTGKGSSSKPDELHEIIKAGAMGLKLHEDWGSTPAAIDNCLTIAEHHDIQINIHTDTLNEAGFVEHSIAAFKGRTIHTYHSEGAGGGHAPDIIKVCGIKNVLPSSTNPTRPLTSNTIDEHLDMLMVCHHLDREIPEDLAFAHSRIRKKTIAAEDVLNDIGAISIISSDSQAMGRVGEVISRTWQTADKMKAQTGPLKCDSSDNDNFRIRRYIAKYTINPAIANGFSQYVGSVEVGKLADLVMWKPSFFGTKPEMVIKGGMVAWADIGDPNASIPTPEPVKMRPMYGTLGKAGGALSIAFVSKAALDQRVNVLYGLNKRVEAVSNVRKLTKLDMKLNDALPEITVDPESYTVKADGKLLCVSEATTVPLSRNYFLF

Row | SMILES | IC50 (Jack Bean Urease [1]) [µM] | IC50 (Jack Bean Urease [2]) [µM]
1 | O=Cc1ccc(C2C3=C(Nc4nccnc42)c2ccccc2C3=O)cc1 (centres unmarked) [compound 4] | 6.79 ± 0.92 | 
2 | O=C1C2=C(Nc3nccnc3C2c2ccc(Cl)cc2)c2ccccc21 (centres unmarked) [compound 5] |  | 4.12 ± 1.18
3 | O=C1C2=C(Nc3nccnc3C2c2ccc([N+](=O)[O-])cc2)c2ccccc21 (centres unmarked) [compound 6] | 4.77 ± 0.92 | 
4 | COc1ccc(C2C3=C(Nc4nccnc42)c2ccccc2C3=O)cc1 (centres unmarked) [compound 7] | 11.9 ± 0.34 | 
5 | NC(N)=S [thiourea] | 1.94 ± 0.36 | 
